pIC50: −log10 of the molar value.

In assay [1] the test system is BaF3. The experiment in a line: PROTAC activity at CRBN/KIF5B-RET (unknown origin) expressed in mouse BaF3 cells assessed as induction of RET degradation at 10 nM measured after 6 hrs by Western blot analysis relative to control. In kind it is cell-based. (Immunoblotting shows a protein as a band on a membrane.)
For assay [2], the system named is BaF3. The experiment in a line: PROTAC activity at CRBN/KIF5B-RET (unknown origin) expressed in mouse BaF3 cells assessed as induction of RET degradation at 100 nM measured after 6 hrs by Western blot analysis relative to control. It is filed as cell-based.
For assay [3], the system named is BaF3. The experiment in a line: PROTAC activity at CRBN/KIF5B-RET (unknown origin) expressed in mouse BaF3 cells assessed as induction of RET degradation at 1000 nM measured after 6 hrs by Western blot analysis relative to control. In kind it is cell-based.
Assay [4] concerns BaF3. The experiment in a line: PROTAC activity at VHL/KIF5B-RET (unknown origin) expressed in mouse BaF3 cells assessed as induction of RET degradation at 10 nM measured after 6 hrs by Western blot analysis relative to control. In kind it is cell-based.
Assay [5] relates to BaF3. The experiment in a line: PROTAC activity at VHL/KIF5B-RET (unknown origin) expressed in mouse BaF3 cells assessed as induction of RET degradation at 100 nM measured after 6 hrs by Western blot analysis relative to control. In kind it is cell-based.
The test system of assay [6] is BaF3. The experiment in a line: PROTAC activity at VHL/KIF5B-RET (unknown origin) expressed in mouse BaF3 cells assessed as induction of RET degradation at 1000 nM measured after 6 hrs by Western blot analysis relative to control. It is filed as cell-based.
In assay [7] the test system is BaF3. The experiment in a line: Antiproliferative activity against mouse BaF3 cells stably expressing KIF5B-RET-G810C mutant incubated for 72 hrs by CCK-8 assay. It is filed as functional, cell-based. The conditions noted are these: BaF3, 72 h. In general terms: Tetrazolium dyes change colour on reduction, which living cells bring about.
The test system of assay [8] is BaF3. The experiment in a line: Antiproliferative activity against mouse BaF3 cells stably expressing KIF5B-RET-G810R mutant incubated for 72 hrs by CCK-8 assay. It is filed as functional, cell-based. The conditions noted are these: BaF3, 72 h.
In assay [9] the test system is BaF3. The experiment in a line: Antiproliferative activity against mouse BaF3 cells stably expressing KIF5B-RET-V804L mutant incubated for 72 hrs by CCK-8 assay. In kind it is functional, cell-based. The conditions noted are these: BaF3, 72 h.
The subject of assay [10] is BaF3. The experiment in a line: Antiproliferative activity against mouse BaF3 cells stably expressing KIF5B-RET-G810S mutant incubated for 72 hrs by CCK-8 assay. The settings on record: BaF3, 72 h. It is filed as functional, cell-based.
Assay [11] relates to BaF3. The experiment in a line: Antiproliferative activity against mouse BaF3 cells stably expressing CCDC6-RET-V804M mutant incubated for 72 hrs by CCK-8 assay. The conditions noted are these: BaF3, 72 h. It is filed as functional, cell-based.
Assay [12] concerns BaF3. The experiment in a line: Antiproliferative activity against mouse BaF3 cells stably expressing CCDC6-RET-G810C mutant incubated for 72 hrs by CCK-8 assay. It is filed as functional, cell-based. The conditions noted are these: BaF3, 72 h.
Assay [13] deals with BaF3. The experiment in a line: Antiproliferative activity against mouse BaF3 cells stably expressing KIF5B-RET fusion protein incubated for 72 hrs by CCK-8 assay. In kind it is functional, cell-based. The conditions noted are these: BaF3, 72 h.
The subject of assay [14] is BaF3. The experiment in a line: Antiproliferative activity against mouse BaF3 cells stably expressing KIF5B-RET-V804M mutant incubated for 72 hrs by CCK-8 assay. It is filed as functional, cell-based. The settings on record: BaF3, 72 h.
For assay [15], the system named is BaF3. The experiment in a line: Antiproliferative activity against mouse BaF3 cells stably expressing CCDC6-RET incubated for 72 hrs by CCK-8 assay. It is filed as functional, cell-based. The conditions noted are these: BaF3, 72 h.

With `COc1ccc(CN2C3CC2CN(c2ccc(-c4cc(-c5cnn(C6CCN(C(=O)CN7CCN(c8ccc9c(c8)C(=O)N(C8CCC(=O)NC8=O)C9=O)CC7)CC6)c5)cn5ncc(C#N)c45)cn2)C3)cn1` (centres undefined), the Activity worked out at 37% in the assay on BaF3 [1], 49% in the assay with BaF3 [2] and 41% with BaF3 [3].
On to `COc1ccc(CN2C3CC2CN(c2ccc(-c4cc(-c5cnn(CCCCCCCCCCCCCCC(=O)N[C@H](C(=O)N6C[C@H](O)C[C@H]6C(=O)N[C@@H](C)c6ccc(-c7scnc7C)cc6)C(C)(C)C)c5)cn5ncc(C#N)c45)cn2)C3)cn1`, for which the Activity with BaF3 [4] is -6%; with BaF3 [5] it was 3%; in the assay on BaF3 [6] it was 20%.
For the compound `COc1ccc(CN2C3CC2CN(c2ccc(-c4cc(-c5cnn(C6CCN(CC(=O)N7CCN(c8ccc9c(c8)C(=O)N(C8CCC(=O)NC8=O)C9=O)CC7)CC6)c5)cn5ncc(C#N)c45)cn2)C3)cn1` (centres undefined), the Activity was 30% in the assay with BaF3 [1], 34% in the assay with BaF3 [2] and 32% in the assay on BaF3 [3].
Take `COc1ccc(CN2C3CC2CN(c2ccc(-c4cc(-c5cnn(CCCCCCC(=O)N[C@H](C(=O)N6C[C@H](O)C[C@H]6C(=O)N[C@@H](C)c6ccc(-c7scnc7C)cc6)C(C)(C)C)c5)cn5ncc(C#N)c45)cn2)C3)cn1`: the Activity in the assay on BaF3 [4] came to 16%; in the assay on BaF3 [5], 49%; in the assay on BaF3 [6], 51%.
Regarding `COc1ccc(CN2C3CC2CN(c2ccc(-c4cc(-c5cnn(CCCCCCCCC#Cc6cccc7c6CN(C6CCC(=O)NC6=O)C7=O)c5)cn5ncc(C#N)c45)cn2)C3)cn1` (centres undefined), the Activity was 17% in the assay on BaF3 [1], 47% in the assay on BaF3 [2] and 34% in the assay on BaF3 [3].
For `COc1ccc(CN2C3CC2CN(c2ccc(-c4cc(-c5cnn(C6CCN(CC#Cc7cccc8c7CN(C7CCC(=O)NC7=O)C8=O)CC6)c5)cn5ncc(C#N)c45)cn2)C3)cn1` (centres undefined), the Activity with BaF3 [1] is 9%; with BaF3 [2], 7%; with BaF3 [3] it was 14%.
For the compound `COc1ccc(CN2C3CC2CN(c2ccc(-c4cc(-c5cnn(CCOCCOCCC(=O)N[C@H](C(=O)N6C[C@H](O)C[C@H]6C(=O)N[C@@H](C)c6ccc(-c7scnc7C)cc6)C(C)(C)C)c5)cn5ncc(C#N)c45)cn2)C3)cn1`, the Activity is 8% in the assay with BaF3 [4], 1% with BaF3 [5] and -5% in the assay with BaF3 [6].
For the compound `COc1ccc(CN2C3CC2CN(c2ccc(-c4cc(-c5cnn(CCCCCCCCCCC#Cc6cccc7c6CN(C6CCC(=O)NC6=O)C7=O)c5)cn5ncc(C#N)c45)cn2)C3)cn1` (centres undefined), the results for the Activity in the assay on BaF3 [1], with BaF3 [2] and in the assay with BaF3 [3] were 15%, 39% and 54%, respectively.
For `COc1ccc(CN2C3CC2CN(c2ccc(-c4cc(-c5cnn(C6CCN(CCCCCCCC#Cc7cccc8c7CN(C7CCC(=O)NC7=O)C8=O)CC6)c5)cn5ncc(C#N)c45)cn2)C3)cn1` (centres undefined), the Activity with BaF3 [1] came to 12%; in the assay on BaF3 [2], 16%; in the assay with BaF3 [3], 30%.
Regarding `COc1ccc(CN2C3CC2CN(c2ccc(-c4cc(-c5cnn(CCCCC(=O)N[C@H](C(=O)N6C[C@H](O)C[C@H]6C(=O)N[C@@H](C)c6ccc(-c7scnc7C)cc6)C(C)(C)C)c5)cn5ncc(C#N)c45)cn2)C3)cn1`, the values for the Activity in the assay with BaF3 [4], in the assay on BaF3 [5] and in the assay on BaF3 [6] were -14%, -11% and -11%, respectively.
Broadly, the pIC50 is the negative decadic logarithm of the IC50, by convention in mol/L. Higher therefore signals a small IC50. For the compound `COc1ccc(CN2C3CC2CN(c2ccc(-c4cc(OCC(C)(C)O)cn5ncc(C#N)c45)cn2)C3)cn1` [SELPERCATINIB], the negative logarithm of the IC50 (pIC50) was 6.16 in the assay with BaF3 [7]; 5.97 in the assay with BaF3 [8]; 7.52 in the assay with BaF3 [9]; 6.24 in the assay with BaF3 [10]; 7.30 in the assay on BaF3 [11]; 6.46 in the assay with BaF3 [12].
For the compound `COc1ccc(CN2C3CC2CN(c2ccc(-c4cc(-c5cnn(CCCCCCCCCCC(=O)N[C@H](C(=O)N6C[C@H](O)C[C@H]6C(=O)N[C@@H](C)c6ccc(-c7scnc7C)cc6)C(C)(C)C)c5)cn5ncc(C#N)c45)cn2)C3)cn1`, the Activity in the assay with BaF3 [4] worked out at 17%; in the assay on BaF3 [5] it was 39%; with BaF3 [6] it was 32%.
Turning to `COc1ccc(CN2C3CC2CN(c2ccc(-c4cc(-c5cnn(CCCCCCC#Cc6cccc7c6CN(C6CCC(=O)NC6=O)C7=O)c5)cn5ncc(C#N)c45)cn2)C3)cn1` (centres undefined), the Activity with BaF3 [1] came out at 27%; in the assay with BaF3 [2] it was 31%; in the assay with BaF3 [3] it was 22%.
In the case of `COc1ccc(CN2C3CC2CN(c2ccc(-c4cc(-c5cnn(C6CCN(CCCCCC#Cc7cccc8c7CN(C7CCC(=O)N(C)C7=O)C8=O)CC6)c5)cn5ncc(C#N)c45)cn2)C3)cn1` (centres undefined), the pIC50 was 7.70 with BaF3 [13]; 6.15 in the assay on BaF3 [7]; 5.77 in the assay on BaF3 [8]; 7.15 in the assay on BaF3 [14]; 7.30 in the assay on BaF3 [9]; 6.62 in the assay with BaF3 [10]. For the same compound, the pIC50 in the assay on BaF3 [15] is 8.00; with BaF3 [11], 7.70; in the assay on BaF3 [12], 7.00.
Regarding `COc1ccc(CN2C3CC2CN(c2ccc(-c4cc(-c5cnn(CCCCCCCCC(=O)N[C@H](C(=O)N6C[C@H](O)C[C@H]6C(=O)N[C@@H](C)c6ccc(-c7scnc7C)cc6)C(C)(C)C)c5)cn5ncc(C#N)c45)cn2)C3)cn1`, the Activity in the assay on BaF3 [4] was determined as 1%; with BaF3 [5], 34%; in the assay with BaF3 [6] it was 39%.
On to `COc1ccc(CN2C3CC2CN(c2ccc(-c4cc(-c5cnn(C6CCN(CCCCCCC#Cc7cccc8c7CN(C7CCC(=O)NC7=O)C8=O)CC6)c5)cn5ncc(C#N)c45)cn2)C3)cn1` (centres undefined), for which the Activity is 35% in the assay on BaF3 [1], 46% in the assay on BaF3 [2] and 47% in the assay with BaF3 [3].
Regarding `COc1ccc(CN2C3CC2CN(c2ccc(-c4cc(-c5cnn(CCCCC#Cc6cccc7c6CN(C6CCC(=O)NC6=O)C7=O)c5)cn5ncc(C#N)c45)cn2)C3)cn1` (centres undefined), the Activity in the assay with BaF3 [1] is 19%; in the assay with BaF3 [2], 23%; with BaF3 [3], 21%.
As for `COc1ccc(CN2C3CC2CN(c2ccc(-c4cc(-c5cnn(C6CCN(CCCC#Cc7cccc8c7CN(C7CCC(=O)NC7=O)C8=O)CC6)c5)cn5ncc(C#N)c45)cn2)C3)cn1` (centres undefined), the results for the Activity in the assay on BaF3 [1], with BaF3 [2] and with BaF3 [3] were 19%, 35% and 51%, respectively.
For `COc1ccc(CN2C3CC2CN(c2ccc(-c4cc(-c5cnn(CCC#Cc6cccc7c6CN(C6CCC(=O)NC6=O)C7=O)c5)cn5ncc(C#N)c45)cn2)C3)cn1` (centres undefined) the same measures were 15%, 26% and 25%.
For `COc1ccc(CN2C3CC2CN(c2ccc(-c4cc(-c5cnn(C6CCN(CCCCC#Cc7cccc8c7CN(C7CCC(=O)NC7=O)C8=O)CC6)c5)cn5ncc(C#N)c45)cn2)C3)cn1` (centres undefined), the Activity is 16% with BaF3 [1], 42% with BaF3 [2] and 48% in the assay on BaF3 [3].

The values are drawn from ChEMBL document CHEMBL6087474, “Discovery of an Efficacious RET PROTAC Degrader with Enhanced Antiproliferative Activity against Resistant Cancer Cells Harboring RET Solvent-Front Mutations” (J Med Chem, 2025).
